In patent publication US20190275022A1, “METHODS, COMPOSITIONS, AND COMPOUNDS FOR TREATMENT OF DERMATOLOGICAL AND OCULAR CONDITIONS” (Allergan, Inc., priority 2016, published 2019):
pIC50: −log10 of the molar value. Like-named read-outs stand apart in the source and are kept apart here.

How the values were obtained:
[1] = tested on: lipopolysaccharide (LPS)-induced ocular inflammation model; assay: LPS-induced ocular inflammation model, aqueous humor cells and protein, survival; format: in vivo; conditions: for % Efficacy, Cell % Inhibition / % Efficacy, Protein % Inhibition: aqueous humor
Description: Male Lewis rats, weighing about 250 to 270 grams, were purchased from Charles River and used for all studies. Lipopolysaccharide (LPS) was made fresh in sterile saline (1 mg/ml), kept on ice, and administered by footpad injection at a total dose of 100 μg (100 μl) per animal. Twenty-four hours later, at the time of maximal inflammation in this model, the rats were euthanized by CO2 inhalation. Aqueous humor was collected and analyzed for protein concentration and cell counts.
For the calculation of the percentage of cell inhibition, the number of cells in treatment group were divided by the average number of cells in vehicle group times 100. For the calculation of the percentage of protein inhibition, the amount protein in treatment group was divided by the average protein in the vehicle group times 100.
Aqueous humor was collected from both eyes by anterior chamber puncture, performed under an operating microscope, using a 30-gauge needle and 25 μl Hamilton syringe (Catalog number 1702). aqueous humor from both eyes was pooled and kept on ice until further analysis.
Protein determination was carried out using a standard Bradford method. Cell counting was done by using either a hemocytometer or an automated cell counter (BioRad TC10).

[2] = tested on: Oxazolone (OXA) dermatitis in SKH1-E hairless mice; assay: Oxazolone-induced dermatitis model, topical or oral treatment, SCORAD and resolved lesions; format: in vivo; conditions: for day of statistically significant improvement in SCORAD clinical scores: topical, vs. vehicle
Description: Female SKH1-E hairless mice (Charles River) weighing approximately 25 g at 2-3 months of age were used in the following study. For model induction, the mice were sensitized on Day −7 (minus seven) by topical application of 50 μl of 5% Oxazolone (OXA) solubilized in ethanol on the hind flank. Dermatitis was elicited by repeated topical challenges with 50 μl of 0.1% Oxazolone every other day until the end of the study.
For administration of the test compounds, the test compounds were solubilized in a 70% ethanol/30% DMSO vehicle solution and kept at 4° C. Beginning on Day 0, the test compounds were administered twice daily (AM/PM) by topical application (50 μl volume) for 12 days. Betamethasone (0.12%) was used as a positive control and dosed once daily in the AM. Test article dosing and topical challenges were separated by at least 4 hours and all compounds were masked to investigators.
For clinical assessment, the degree of dermatitis was graded on a SCORAD (scoring atopic dermatitis) based scoring system of 0-3 (with 0=no symptoms, 1=Mild, 2=Moderate, 3=Severe) prior to challenge by a masked investigator.
(§1) For tissue collection, on the day of necropsy, animals were euthanized at 2 hours post final dose via CO2 inhalation with death verified by cervical dislocation. Whole blood was collected via cardiac puncture (˜250 μl) in EDTA/K^+ treated tubes for plasma analysis of drug concentrations. A rectangular strip of skin from the left side of treatment back area was collected for hematoxylin-eosin (H&E) stain. Prior to placing tissue in 10% formalin, the skin thickness was measured using a calibrated caliper (mm). Three 8 mm tissue punches were then collected from the right side of the treatment area and stored at −80° C. for cytokine protein (LUMINEX) or gene expression assays.

human PDE4B2 = human PDE4B2 (Homo sapiens, UniProt Q07343); assay: Phosphodiesterase assay, recombinant human PDE4B2 ([3H]cAMP hydrolysis); format: biochemical
Description: A phosphodiesterase assay was performed using recombinant human PDE expressed in a baculoviral system.
The assay consisted of a two-step procedure. Tritium-labeled cyclic AMP was hydrolyzed to 5′-AMP by phosphodiesterase. The 5′-AMP was then further hydrolyzed to adenosine by nucleotidase in snake venom. An anion-exchange resin bound all charged nucleotides and left [^3H]adenosine as the only labeled compound to be counted by liquid scintillation.
All compounds were tested at a 10 μM starting concentration with a 1 in 3, 8 point IC50. […] The IC50 of each compound and the standard inhibitor (Rolipram) was determined. The standard inhibitor value was compared to historical assay data to ensure that it was within an acceptable range.

PMBC TNF = conditions: data from literature; read-out: PMBC TNF Inhib. IC50; cited from earlier work
dry eye disease = assay: Example of treatment of dry eye disease (patient case); format: in vivo, human; conditions: eye drops once a day; after about 1 to 2 months
Description: A person presents with a history of having gritty, itchy and burning sensations in the both eyes which was previously generally diagnose as dry eye and has been treated with artificial tear drops applied topically to the eye as needed. The patient complains that the artificial tear solutions require too many applications per day. Medical evaluation of the patient results in the identification of the patient's dry eye disease as being dry eye disease where tear production is presumed to be suppressed due to ocular inflammation associated with the dry eye disease. The patient is prescribed eye drops containing an effective amount of the compound of Formula I with instructions to apply medication once a day.

[3] = Plasma drug concentration after topical dosing in the dermatitis model (LC-MS/MS); format: in vivo
Description: as §1
The whole-blood samples collected in Example 2 were analyzed for drug concentrations. In particular, plasma samples were extracted by protein precipitation with acetonitrile and analyzed for drug concentrations by the bioanalytical laboratory using liquid chromatography tandem mass spectrometry (LC-MS/MS). Propranolol (200 ng/mL) was used as an internal standard for the extraction procedure. Working standards were prepared by series dilution (0.5 ng/mL) into acetonitrile from a stock solution of 10 ug/mL. All samples were analyzed using the API 5000 LC-MS/MS system in 0.1% formic acid in water.

Oral bio-availability = conditions: in vivo
plaque psoriasis = assay: Example of treatment of plaque psoriasis (patient case); format: in vivo, human; conditions: topical up to three times a day; after 1 to 4 months
Description: A person presents with erythematous plaques covered with thick, silvery, shiny scales on the extensor surfaces of their elbows and knees. After a clinical evaluation, the patient is diagnosed with plaque psoriasis. The patient is prescribed a pharmaceutical composition containing an effective amount of the compound of Formula I with instructions to apply the composition topically to the plaques up to three times a day.

[4] = tested on: pruritus, atopic dermatitis; assay: Example of treatment of pruritus / atopic dermatitis (patient case); format: in vivo, human; conditions: topical cream once a day
Description: A person presents with a history of chronic relapsing atopic dermatitis (eczema), with severe itching, beginning. Their rash is characterized by red, itchy eruptions on cheeks and legs. Patient's parents stated that during a flare-up child is irritable at home and severe scratching disrupts sleep at night. Patient also feels very self-conscious of rash and is socially withdrawn at school during a flare-up. History of treatment have included lukewarm soaking baths and the use of over the counter emollients and creams. Topical calcineurin inhibitors were reported to exacerbate pruritus. The patient is prescribed a topical cream of the compound of Formula I with instructions to apply medication once day.

rosacea = assay: Example of treatment of rosacea (patient case); format: in vivo, human; conditions: topical one or twice a day; after about two days
Description: A person presents with visible facial erythema and edema with telangiectases and visible papules and pustules resembling acne. […] Upon clinical examination, the patient is diagnosed with rosacea in its inflammatory phase. The patient is prescribed a topical composition comprising an effective amount of the compound of Formula I and instructed to apply the composition to the affected areas one or twice a day.

[5] = 0.01-0.5 mg/kg subcutaneously, dose dependent
[6] = human PDE4B2, read-out: Enzymatic IC50

Chain of human PDE4B2 (Q07343 1-564 isoform Q07343-2): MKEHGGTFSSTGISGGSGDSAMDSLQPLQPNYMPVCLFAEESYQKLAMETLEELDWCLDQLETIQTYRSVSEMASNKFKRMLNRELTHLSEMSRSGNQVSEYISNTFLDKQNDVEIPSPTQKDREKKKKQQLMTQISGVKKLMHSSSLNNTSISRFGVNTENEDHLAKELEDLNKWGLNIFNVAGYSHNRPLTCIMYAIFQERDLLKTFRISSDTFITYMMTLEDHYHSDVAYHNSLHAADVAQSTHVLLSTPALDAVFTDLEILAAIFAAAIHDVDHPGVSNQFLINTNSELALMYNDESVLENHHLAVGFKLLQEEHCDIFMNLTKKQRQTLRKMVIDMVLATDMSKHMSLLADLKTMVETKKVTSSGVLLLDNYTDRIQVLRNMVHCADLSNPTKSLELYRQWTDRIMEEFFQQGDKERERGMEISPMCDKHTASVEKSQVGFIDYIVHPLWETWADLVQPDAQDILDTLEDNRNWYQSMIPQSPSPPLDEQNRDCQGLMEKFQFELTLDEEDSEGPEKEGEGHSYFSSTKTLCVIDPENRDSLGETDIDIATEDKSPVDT

## CCCNC(=O)COc1c(C(=O)Cc2c(Cl)cncc2Cl)ccc(OC)c1OC
[1]; systemic dose 1.0 mg/kg
  % Survival: 100%
  % Efficacy, Cell % Inhibition: 67%
  % Efficacy, Protein % Inhibition: 29%

## N#Cc1ccc(Oc2ccc3c(c2)COB3O)cc1 [AN-2728]
[2]
  day of statistically significant improvement in SCORAD clinical scores: ≥ 9 days
Human PDE4B2
  pIC50: 7.59
PMBC TNF
  pIC50: 6.77

## CS(=O)(=O)Nc1ccc(C(=O)O[C@@H](Cc2c(Cl)c[n+]([O-])cc2Cl)c2ccc(OC(F)F)c(OCC3CC3)c2)cc1OCC1CC1 [Compound A]
[1]; [5]
  percentage of cells in the aqueous humor: significantly reduced
  percentage of protein in the aqueous humor: significantly reduced
[1]; systemic dose 0.1 mg/kg
  % Survival: 100%
  % Efficacy, Cell % Inhibition: 95%
  % Efficacy, Protein % Inhibition: 67%
[2]; topical 0.01-1% w/v, compared to AN-2728
  reduction of SCORAD clinical scores earlier than benchmark AN-2728: 4 days
[2]
  day of statistically significant improvement in SCORAD clinical scores: ≤ 5 days
[2]; topically applied at 0.01%
  animals with resolved lesions: approximately 60%
[2]; topically applied at 1%
  animals with resolved lesions: approximately 90%
Dry eye disease
  gritty, itchy and burning sensations: significant reduction
  tear production: enough of an increase in tear production that the artificial tear drops are needed much less frequently
[3]; mouse, in vivo, delivered topically to the skin, 2 hours post final dose, read-out: plasma concentrations
  concentration at 2 h: < 5 ng/mL
[3]; topical 0.01%, 8 of the 10 animals
  plasma concentrations: below quantifiable limits
Oral bio-availability
  oral bio-availability: does not show any oral bio-availability
Plaque psoriasis
  psoriatic plaques: almost completely disappeared
Human PDE4B2; [6]
  pIC50: 10.40
[4]; after approximately 3 weeks
  redness and eruptions on the skin: significant reduction
[4]; within the first week
  scratching: noticeable reduction in scratching
PDE4 versus other PDEs
  selectivity for PDE4 versus other PDEs: greater than 50 fold
PMBC TNF
  pIC50: 10.52
rosacea
  rosacea affected areas: noticeable clearing of the affected areas

## COc1cccc(Nc2c(C(N)=O)cnc3c(C)cc(S(=O)(=O)c4cccc(C(=O)N(C)C)c4)cc23)c1 [GSK-256066]
[1]; rat, in vivo
  safety in the ocular inflammation model: resulted in death of the animals
[1]; systemic dose 1.0 mg/kg
  % Survival: 0%
Human PDE4B2; [6]
  pIC50: 11.15
PMBC TNF
  pIC50: 11.00

## CCOc1cc([C@@H](CS(C)(=O)=O)N2C(=O)c3cccc(NC(C)=O)c3C2=O)ccc1OC [apremilast]
[2]; topically applied at 1%
  animals with resolved lesions: approximately 40%
PMBC TNF
  pIC50: 6.96

## O=C(Nc1c(Cl)cncc1Cl)c1ccc(OC(F)F)c(OCC2CC2)c1 [drawing 21]
[1]; systemic dose 0.3 mg/kg
  % Survival: 100%
  % Efficacy, Cell % Inhibition: 97%
  % Efficacy, Protein % Inhibition: 77%

## CCOc1cc([C@@H](CS(C)(=O)=O)N2C(=O)c3cccc(NC(C)=O)c3C2=O)ccc1OC [drawing 22]
[1]; systemic dose 10.0 mg/kg
  % Survival: 100%
  % Efficacy, Cell % Inhibition: 94%
  % Efficacy, Protein % Inhibition: 58%

## N#Cc1ccc(Oc2ccc3c(c2)COB3O)cc1 [drawing 23]
[1]; systemic dose 1.0 mg/kg
  % Survival: 100%
  % Efficacy, Cell % Inhibition: 51%
  % Efficacy, Protein % Inhibition: 13%

## O=C(Nc1c(Cl)cncc1Cl)c1ccc(OC(F)F)c(OCC2CC2)c1 [roflumilast]
PMBC TNF
  pIC50: 8.74
